Measurements from patent publication US20220387411A1, “TARGETED AUTOPHAGY CONJUGATES AND METHODS” (Frontier Medicines Corporation, priority 2019, published 2022).

The compounds below were run against T1, Recombinant pure human SQSTM1 protein (Homo sapiens, UniProt Q13501) (assay: Inhibition of IA-Rhodamine labeling of SQSTM1 (gel-based, densitometry)). Settings: 50 μM of test compound (initial screen); 30 min at 37° C., then 100 nM IA-Rhodamine 1 hour; inhibition of target labeling by densitometry.
T1 construct: purchased Origene
Format: binding
Procedure: Recombinant pure human SQSTM1 protein was purchased from Origene. SQSTM1 protein (0.21 μg) was diluted into 50 μL of PBS and 1 μL of either DMSO (vehicle) or covalently acting small molecule (test compound) to achieve the desired concentration. After 30 min. at 37° C., the samples were treated with 100 nM IA-Rhodamine (tetramethylrhodamine-5-iodoacetamide dihydroiodide; Setareh Biotech, 6222, prepared in anhydrous DMSO) for 1 hour at room temperature. Samples were then diluted with 20 μL of 4× reducing Laemmli SDS sample loading buffer (Alfa Aesar) and heated at 90° C. for 5 min. The samples were separated on precast 4-20% Criterion TGX gels (Bio-Rad Laboratories, Inc.). Fluorescent imaging was performed on a ChemiDoc MP instrument (Bio-Rad Laboratories, Inc.), and inhibition of target labeling was assessed by densitometry using ImageJ software. The initial screen was performed using 50 μM of test compound.

T1 sequence (Q13501 whole entry): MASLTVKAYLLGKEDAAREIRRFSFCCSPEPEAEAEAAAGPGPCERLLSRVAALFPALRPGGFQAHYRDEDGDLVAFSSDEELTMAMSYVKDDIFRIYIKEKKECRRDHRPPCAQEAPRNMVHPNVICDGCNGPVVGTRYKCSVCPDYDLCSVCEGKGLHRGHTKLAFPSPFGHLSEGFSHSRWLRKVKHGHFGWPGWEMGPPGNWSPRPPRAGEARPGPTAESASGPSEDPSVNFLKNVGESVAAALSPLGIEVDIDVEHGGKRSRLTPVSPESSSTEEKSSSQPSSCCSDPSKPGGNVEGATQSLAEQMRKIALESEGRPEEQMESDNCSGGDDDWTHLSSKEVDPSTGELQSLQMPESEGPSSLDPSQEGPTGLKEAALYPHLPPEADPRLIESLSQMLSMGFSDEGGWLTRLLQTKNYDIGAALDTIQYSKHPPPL

Compound | inhibition at 50 µM [%] | % inhibition
COc1ccc(CN(C(=O)CCl)c2nccs2)c(OC)c1 [Compound 1, 2-chloro-N-(2,4-dimethoxybenzyl)-N-(thiazol-2-yl)acetamide] | 79 | 
CC1(CNC(=O)OCc2ccccc2)CCCN(C(=O)CCl)CC1 (centres unmarked) [Compound 35, Benzyl ((1-(2-chloroacetyl)-4-methylazepan-4-yl)methyl)carbamate] | 17 | 
O=C(CCl)N1CCC(F)C(F)(F)CC1 (centres unmarked) [Compound 43, 2-chloro-1-(4,4,5-trifluoroazepan-1-yl)ethanone] | 25 | 
O=C(CCl)N(Cc1ccccc1)C1CCCC[C@H]1CO (stereo in doubt) [Compound 3, N-benzyl-2-chloro-N-(cis-2-(hydroxymethyl)cyclohexyl)acetamide] | 58 | 
CC(C)(C)OC(=O)NC1CCCCN(C(=O)CCl)C1 (centres unmarked) [Compound 37, Tert-butyl (1-(2-chloroacetyl)azepan-3-yl)carbamate] | 30 | 
CC1CCN(C(=O)CCl)CCC1O (centres unmarked) [Compound 45, 2-chloro-1-(4-hydroxy-5-methylazepan-1-yl)ethanone] |  | not active
CC(C)(C)OC(=O)N1CCC(N(C(=O)CCl)C2CCOCC2)CC1 [Compound 7, Tert-butyl 4-(2-chloro-N-(tetrahydro-2H-pyran-4-yl)acetamido)piperidine-1-carboxylate] | 61 | 
O=C1CC(N(Cc2ccccc2)C(=O)CCl)CN1Cc1ccccc1 (centres unmarked) [Compound 11, N-benzyl-N-(1-benzyl-5-oxo-pyrrolidin-3-yl)-2-chloro-acetamide] | 57 | 
O=C(CCl)N(C1CCNCC1)C1CCOCC1 [Compound 63, 2-chloro-N-(piperidin-4-yl)-N-(tetrahydro-2H-pyran-4-yl)acetamide] |  | not active
O=C(CCl)N1CCOCC(F)(F)C1 [Compound 50, 2-chloro-1-(6,6-difluoro-1,4-oxazepan-4-yl)ethanone] | 17 | 
O=C(CCl)N1CCCN(c2ccc(F)cn2)CC1 [Compound 16, 2-chloro-1-(4-(5-fluoropyridin-2-yl)-1,4-diazepan-1-yl)ethanone] | 20 | 
O=C(CCl)N1CCCC(O)(C(F)(F)F)CC1 (centres unmarked) [Compound 33, 2-chloro-1-(4-hydroxy-4-(trifluoromethyl)azepan-1-yl)ethanone] | 32 | 
CC(C)(C)OC(=O)N1CCN(C(=O)CCl)CC(O)C1 (centres unmarked) [Compound 18, Tert-butyl 4-(2-chloroacetyl)-6-hydroxy-1,4-diazepane-1-carboxylate] | 21 | 
O=C1CCCC2(CNCCN(C(=O)CCl)C2)N1 (centres unmarked) [Compound 72, 8-(2-chloroacetyl)-1,8,11-triazaspiro[5.6]dodecan-2-one] |  | not active
O=C(NCC1(O)CCCCN(C(=O)CCl)C1)OCc1ccccc1 (centres unmarked) [Compound 30, Benzyl ((1-(2-chloroacetyl)-3-hydroxyazepan-3-yl)methyl)carbamate] | 50 | 
CC1(O)CCCCN(C(=O)CCl)C1 (centres unmarked) [Compound 39, 2-chloro-1-(3-hydroxy-3-methylazepan-1-yl)ethanone] | 20 | 
O=C(CCl)N(Cc1ccccc1)[C@H]1COC[C@@H]1O [Compound 5, N-benzyl-2-chloro-N-((3S,4R)-4-hydroxytetrahydrofuran-3-yl)acetamide] |  | 25%
CC1(CNC(=O)OCc2ccccc2)CCCCN(C(=O)CCl)C1 (centres unmarked) [Compound 26, Benzyl ((1-(2-chloroacetyl)-3-methylazepan-3-yl)methyl)carbamate] | 70 | 
C[C@H]1CN(C(=O)OC(C)(C)C)CCCN1C(=O)CCl [Compound 12, (S)-tert-butyl 4-(2-chloroacetyl)-3-methyl-1,4-diazepane-1-carboxylate] |  | not active
O=C(CCl)N1CCCCC(O)(CF)C1 (centres unmarked) [Compound 32, 2-chloro-1-(3-(fluoromethyl)-3-hydroxyazepan-1-yl)ethanone] | 17 | 
O=C(CCl)N1CCCCC(F)(F)C1 [Compound 19, 2-chloro-1-(3,3-difluoroazepan-1-yl)ethanone] | 83 | 

What follows are compounds tested against Protein SQSTM1 (p62) (Homo sapiens, UniProt Q13501) (assay: Dose response of Compound 1 and Compound 19 against SQSTM1 (TAMRA fluorescence)). Settings: pre-incubated at 2, 0.5, 0.125 and 0.03 μM, then reactive probe TAMRA; FIG. 1.
Format: binding
Procedure: Protein SQSTM1 (p62) was pre-incubated with either Compound 1 or Compound 19 at concentrations of 2, 0.5, 0.125, and 0.03 μM, followed by addition of the reactive probe 5-carboxytetramethylrhodamine (TAMRA). Measurements were made using TAMRA fluorescence. Silver staining of the protein was used as a protein loading control. Decreasing fluorescence of TAMRA indicates binding of the test compound.

Sequence of Protein SQSTM1 (p62) (Q13501 whole entry): as above

Compound | binding to SQSTM1 (decreasing TAMRA fluorescence)
COc1ccc(CN(C(=O)CCl)c2nccs2)c(OC)c1 [Compound 1, 2-chloro-N-(2,4-dimethoxybenzyl)-N-(thiazol-2-yl)acetamide] | covalently bind to SQSTM1
O=C(CCl)N1CCCCC(F)(F)C1 [Compound 19, 2-chloro-1-(3,3-difluoroazepan-1-yl)ethanone] | covalently bind to SQSTM1
